Experiment [1] addresses T1, GLUT9 (Homo sapiens, UniProt Q9NRM0).
T1 construct: The full length GLUT1, GLUT4, and GLUT9 ORF cDNA clones were purchased from Addgene; EGFP (from the pEGFP-N2 vector); host or cells: LNCaP
T1 sequence (Q9NRM0 1-540): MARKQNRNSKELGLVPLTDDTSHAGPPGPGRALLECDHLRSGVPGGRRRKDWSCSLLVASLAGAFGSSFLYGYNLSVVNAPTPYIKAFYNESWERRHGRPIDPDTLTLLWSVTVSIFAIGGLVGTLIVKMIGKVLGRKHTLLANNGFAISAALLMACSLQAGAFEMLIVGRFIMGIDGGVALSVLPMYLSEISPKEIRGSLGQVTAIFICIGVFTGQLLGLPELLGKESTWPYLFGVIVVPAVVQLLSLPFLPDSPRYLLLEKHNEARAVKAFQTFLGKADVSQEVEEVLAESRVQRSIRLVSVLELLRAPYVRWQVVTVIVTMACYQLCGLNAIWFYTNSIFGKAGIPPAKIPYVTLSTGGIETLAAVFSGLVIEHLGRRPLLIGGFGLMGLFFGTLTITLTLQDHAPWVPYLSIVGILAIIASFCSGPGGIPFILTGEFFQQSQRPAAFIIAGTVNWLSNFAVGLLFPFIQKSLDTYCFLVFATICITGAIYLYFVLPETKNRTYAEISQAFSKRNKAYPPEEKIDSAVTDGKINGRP
Put plainly: [3H]2-DG uptake into LNCaP cells overexpressing GLUT9. The format is cell-based. To be noted: for inhibition at 5 µM: LNCaP cells transfected with GLUT9, 30 min. The source says: (§1) As information regarding the expression pattern of individual GLUT members in LNCaP cells was lacking, quantitative real time polymerase chain reaction (qRT-PCR) was used to assess the mRNA levels of the hypoxia-responsive GLUT1 and GLUT3, and three other representative GLUT members, including the class I GLUT2 and GLUT4 and the class II GLUT9. Among these five members, LNCaP cells expressed GLUT1 and, to a much lesser extent, GLUT9, while the mRNA levels of GLUTs2-4 were negligible (FIG. 3B). To examine the isoform specificity of these inhibitors, LNCaP cells were ectopically transfected with plasmids encoding GLUT1, GLUT3, GLUT4, or GLUT9 vis-à-vis the pCMV control vector so that the increased glucose uptake in GLUT-transfected cells relative to pCMV control cells was indicative of the activity of the ectopically expressed GLUT protein.
(§2) Glucose Uptake Assay. LNCaP cells were seeded in six-well plates (3×10^5 cells/well) for 24 h. Cells were washed twice with Krebs-Ringer phosphate buffer (126 mM NaCl, 2.5 mM KCl, 25 mM NaHCO3, 1.2 mM NaH2PO4, 1.2 mM MgCl2, 2.5 mM CaCl2, pH 7.4) and were then treated with individual agents in Krebs-Ringer phosphate buffer. After 1.5 h, glucose uptake was initiated by adding 1 mL Krebs-Ringer buffer containing […] [^3H]2-DG (PerkinElmer Life Science) and […] non-radioactive 2-DG and was terminated by washing with cold PBS. The cells were lysed in […] lysis buffer (10 mM Tris-HCl pH 8.0, 0.1% SDS) and aliquots were taken for measurement of radioactivity using a scintillation counter (Beckman LS6500).
Plasmid Construction, Transient Transfection and Immunoblotting. The full length GLUT1, GLUT4, and GLUT9 ORF cDNA clones were purchased from Addgene (Cambridge, Mass.) and GLUT3 ORF cDNA was purchased from Origene Technologies (Rockville, Md.). GLUT1, GLUT3, and GLUT9 were subcloned into the HindIII/SalI sites and GLUT4 was subcloned into the EcoRI/SalI sites of pEGFP-N2 expression vector (Clontech, Palo Alto, Calif.). […]

The target of experiment [2] is T2, GLUT1 (Homo sapiens, UniProt P11166).
T2 construct: The full length GLUT1, GLUT4, and GLUT9 ORF cDNA clones were purchased from Addgene; EGFP (from the pEGFP-N2 vector); host or cells: LNCaP
T2 sequence (P11166 1-492): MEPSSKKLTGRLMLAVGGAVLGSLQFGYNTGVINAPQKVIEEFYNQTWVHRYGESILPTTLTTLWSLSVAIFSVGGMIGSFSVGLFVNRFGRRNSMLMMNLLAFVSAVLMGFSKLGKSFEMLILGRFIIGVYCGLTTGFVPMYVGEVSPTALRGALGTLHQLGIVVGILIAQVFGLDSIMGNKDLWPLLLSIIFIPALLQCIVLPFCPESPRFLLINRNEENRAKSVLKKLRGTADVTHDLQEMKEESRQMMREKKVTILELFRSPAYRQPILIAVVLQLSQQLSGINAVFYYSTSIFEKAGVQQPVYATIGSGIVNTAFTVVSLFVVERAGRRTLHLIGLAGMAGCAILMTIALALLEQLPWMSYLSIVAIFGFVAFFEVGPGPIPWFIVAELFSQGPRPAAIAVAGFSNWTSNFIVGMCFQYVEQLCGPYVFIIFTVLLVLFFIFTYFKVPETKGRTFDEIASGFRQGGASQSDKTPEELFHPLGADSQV
The experiment is described as follows: [3H]2-DG uptake into LNCaP cells overexpressing GLUT1. The format is cell-based. The note with it: for IC50: LNCaP cells overexpressing GLUT1, read-out: IC50 in inhibiting GLUT1-mediated [3H]2-DG uptake; for inhibition at 5 µM: LNCaP cells transfected with GLUT1, 30 min.
Text: as §1, §2
Plasmid Construction, Transient Transfection and Immunoblotting. The full length GLUT1, GLUT4, and GLUT9 ORF cDNA clones were purchased from Addgene (Cambridge, Mass.) and GLUT3 ORF cDNA was purchased from Origene Technologies (Rockville, Md.). GLUT1, GLUT3, and GLUT9 were subcloned into the HindIII/SalI sites and GLUT4 was subcloned into the EcoRI/SalI sites of pEGFP-N2 expression vector (Clontech, Palo Alto, Calif.). Transfections were performed by electroporation using Nucleofector kit R of the Amaxa Nucleofector system (Lonza, Walkersville, Md.) according to the manufacturer's protocol. Immunoblotting was performed using cells lysates harvested with SDS lysis buffer (1% SDS, 50 mM Tris-HCl pH 8.0, 10 mM EDTA) containing 1× protease inhibitor cocktail (Sigma) and phosphatase inhibitor and were electrophoresed in 8˜12% SDS polyacrylamide gels and then transferred onto nitrocellulose membranes. After blotting in 5% nonfat dry milk, the membranes were incubated with primary antibodies at 1:1,000 dilution in TBS-Tween 20 overnight at 4° C., and then secondary antibodies conjugated with horseradish peroxidase at 1:5,000 dilution in TBS-Tween 20 for 1 hour at room temperature. […]

For experiment [3], the system named is LNCaP cells. The experiment is described as follows: MTT cell viability assay, LNCaP. The format is cell-based, human. To be noted: for IC50: 72 h, MTT, 10% FBS. The protocol: Cell Viability Assay. Cell viability was determined using the 3-(4,5-dimethylthiazol-2-yl)-2,5-diphenyltetrazolium bromide (MTT) assay. Cancer cells were seeded at 5000 cells/well and normal cells were seeded at 8000 cells/well in 96-well plates and incubated in 10% FBS-supplemented medium for 24 h. Cells were then treated with individual agents for 72 h. Drug-containing medium was replaced with medium containing MTT (0.5 mg/mL), followed by incubation at 37° C. for 1 h. After removal of medium, the reduced MTT dye in each well was solubilized in 100 μL of DMSO and absorbance at 570 nm was measured.
Compound 30 was evaluated for antiproliferative activity in panels of different human cancer cells lines, including those of prostate, breast and pancreatic cancers. In all experiments, cells were treated with a range of concentrations of Compound 30 in the presence of 10% fetal bovine serum (FBS). Cell viability was then determined after 72 h of treatment using the 3-(4,5-dimethylthiazol-2-yl)-2,5-diphenyltetrazolium bromide (MTT) assay. […] It is noteworthy that despite this high antiproliferative potency, normal human prostate epithelial cells (PrECs) were resistant to the cytotoxic effect of Compound 30 even at 10 μM.
(In general: Tetrazolium dyes change colour on reduction, which living cells bring about.)

Molecules are shown by their SMILES. A value given as a limit tells only on which side of the number the result lay.

The source of these data is patent US9174951B2, “Glucose transporter inhibitors” (The Ohio State University Research Foundation, priority 2012, dated 2015).

As to `CCC(CC)CN1C(=O)S/C(=C\c2ccc(O)c(C(F)(F)F)c2)C1=O` [Compound 5], the inhibition (as a rule, the share of the control response that was lost under treatment) at 5 µM in experiment [1] was determined as 26%; in experiment [2], 53%. The IC50 – broadly, the concentration that gives 50% inhibition – stood at 5000 nM in experiment [2] and 4200 nM in experiment [3] (Homo sapiens, LNCaP).

Consider `CC(CN1C(=O)S/C(=C\c2ccc(O)c(C(F)(F)F)c2)C1=O)(CC(F)(F)F)CC(F)(F)F` [Compound 30, 5-(4-Hydroxy-3-trifluoromethyl-benzylidene)-3-[4,4,4-trifluoro-2-methyl-2-(2,2,2-trifluoro-ethyl)-butyl]-thiazolidine-2,4-dione], for which the 50% inhibitory concentration (IC50) in experiment [1] (LNCaP cells overexpressing GLUT9, read-out: IC50 for GLUT9-mediated [3H]2-DG uptake) is not below 5000 nM; in experiment [2], 2000 nM; in experiment [3] (Homo sapiens, LNCaP), 1500 nM; in experiment [3], 1500 to 1700 nM. In addition, the inhibition at 5 µM was 34% in experiment [1] and 73% in experiment [2]. Further, in experiment [3] (relative to compound 1), the “improvement over compound 1 (IC50, [3H]-2DG uptake and viability of LNCaP cells)” value is 40 fold.
